Usually IC50 stands for the concentration needed to halve the response being measured.

Assay [1] has as its target CtermHisTag-mEGFR Triple Mutant - C797S, L858R, T790M (Homo sapiens, UniProt P00533, C797S/L858R/T790M). Put plainly: TR-FRET probe displacement assay, EGFR triple mutant. It counts as binding. The conditions noted are these: T790M 1.25 nM, probe 100 nM, 30 mins room temperature. The procedure: (§1) Compounds (dissolved to 100 mM in DMSO) were dispensed into black low volume 384 well assay plates (Corning) over a final concentration range of 100000, 30000, 10000, 3000, 1000, 300, 100, 30, 10, and 3 nM using an Echo 550 (Labcyte). Positive control compound and DMSO as a negative control were dispensed into the first and last well, respectively. […]. Plates were read using a PheraStar FS (BMG Labtech) at Ex337 nm Ex490/520 nm. The data were analysed using Graphpad Prism/Dotmatics Studies Software. Assays conducted in technical replicate and repeated as a biological duplicate.
On the technique in general: Time-resolved FRET reads energy transfer from a long-lived donor to a nearby acceptor.

Assay [2] addresses CtermHisTag-mEGFR Wild type (Homo sapiens, UniProt P00533). Put plainly: TR-FRET probe displacement assay, EGFR wild type. The conditions noted are these: EGFR wild type 1.25 nM, probe 100 nM, 30 mins room temperature. Type of assay: binding. The method, then: as §1
Assay [3] deals with T1, Phospho-EGFR (Tyr1068) in H1975 cells (Homo sapiens, UniProt P00533, L858R/T790M).
T1 construct: host or cells: H1975
The experiment in a line: HTRF pEGFR/total EGFR assay in H1975 cells. It counts as cell-based. The settings on record: compound 3 hours, ratio pEGFR/total EGFR. The method, then:
H1975 cells (ATCC CRL-5908) were plated at 20,000 cells per well in 96 well plates and placed at 37° C. 5% CO2. Once adhered (after 24h) cells were treated with compounds dissolved in DMSO at a final concentration of 0.1% DMSO in media. Compounds were diluted in media then added to cells for 3 hours in duplicate. Compound and media were removed from the cells, then 50ul of HTRF lysis buffer is added (lysis buffer was diluted from 4× stock to 1× in DI water, with 1% blocking agent also added). Cells were lysed on a plate shaker (2000 rpm) for 30 minutes at room temperature. pEGFR expression was monitored using the Cisbio Phospho-EGFR (Tyri068) cellular kit (64EG1 PEH). Total EGFR expression was monitored using the Cisbio Total EGFR cellular kit (64NG1 PEH) as per manufacturer's instructions. Fluorescence emission was read at two different wavelengths (665 nm and 620 nm) on a PheraStar. Results were calculated as ratio of pEGFR/total EGFR and then percentage of 0 uM control.

Assay [4] concerns the target T2, Phospho-EGFR (Tyr1068) in H1975 C797S cells (Homo sapiens, UniProt P00533, C797S/L858R/T790M).
T2 construct: endogenous in cells; host or cells: H1975 C797S (CRISPR-edited in house from ATCC CRL-5908)
Put plainly: HTRF pEGFR/total EGFR assay in H1975 C797S cells. Type of assay: cell-based. The conditions noted are these: H1975 C797S cells (CRISPR), compound 3 hours, ratio pEGFR/total EGFR. The procedure: H1975 C797S cells (ATCC CRL-5908) were genetically engineered by CRISPR editing of EGFR C797S in house and validated by NGS. Cells were plated at 20,000 cells per well in 96 well plates and placed at 37° C. 5% CO2. Once adhered (after 24h) cells were treated with compounds dissolved in DMSO at a final concentration of 0.1% DMSO in media. Compounds were diluted in media then added to cells for 3 hours in duplicate. Compound and media were removed from the cells, then 50 ul of HTRF lysis buffer was added (lysis buffer was diluted from 4× stock to 1× in DI water, with 1% blocking agent also added). Cells were lysed on a plate shaker (2000 rpm) for 30 minutes at room temperature. pEGFR expression was monitored using the Cisbio Phospho-EGFR (Tyr1068) cellular kit (64EG1PEH). Total EGFR expression was monitored using the Cisbio Total EGFR cellular kit (64NG1PEH) as per manufacturer's instructions. Fluorescence emission was read at two different wavelengths (665 nm and 620 nm) on a PheraStar. Results were calculated as ratio of pEGFR/total EGFR and then percentage of 0 uM control.

Assay [5] has as its target T3, Phospho-EGFR (Tyr1068) in A431 cells (Homo sapiens, UniProt P00533).
T3 construct: endogenous in cells; host or cells: A431
The experiment in a line: HTRF pEGFR/total EGFR assay in A431 cells (EGF stimulated). The settings on record: compound 2.5 hours then 100 ng/ml EGF 30 mins, ratio pEGFR/total EGFR. Type of assay: cell-based. The method, then:
Cells were plated at 20,000 cells per well in 96 well plates and placed at 37° C. 5% CO2. Once adhered (after 24h) cells were treated with compounds dissolved in DMSO at a final concentration of 0.1% DMSO in media. Compounds were diluted in media then added to cells for 2.5 hours in duplicate, 100 ng/ml EGF (ThermoFisher, PHG0311 was is added to all compound treated cells as well as a control for 30 mins. Compound and media were removed from the cells, then 50ul of HTRF lysis bufferwas added (lysis bufferwas diluted from 4× stock to 1× in DI water, with 1% blocking agent also added). Cells were lysed on a plate shaker (2000 rpm) for 30 minutes at room temperature. pEGFR expression was monitored using the Cisbio Phospho-EGFR (Tyr1068) cellular kit (64EG1PEH). Total EGFR expression was monitored using the Cisbio Total EGFR cellular kit (64NG1PEH) as per manufacturer's instructions. Fluorescence emission was read at two different wavelengths (665 nm and 620 nm) on a PheraStar. Results were calculated as ratio of pEGFR/total EGFR and then percentage of OuM control.

Sequence of CtermHisTag-mEGFR Triple Mutant - C797S, L858R, T790M (P00533 25-1210 T790M/C797S/L858R): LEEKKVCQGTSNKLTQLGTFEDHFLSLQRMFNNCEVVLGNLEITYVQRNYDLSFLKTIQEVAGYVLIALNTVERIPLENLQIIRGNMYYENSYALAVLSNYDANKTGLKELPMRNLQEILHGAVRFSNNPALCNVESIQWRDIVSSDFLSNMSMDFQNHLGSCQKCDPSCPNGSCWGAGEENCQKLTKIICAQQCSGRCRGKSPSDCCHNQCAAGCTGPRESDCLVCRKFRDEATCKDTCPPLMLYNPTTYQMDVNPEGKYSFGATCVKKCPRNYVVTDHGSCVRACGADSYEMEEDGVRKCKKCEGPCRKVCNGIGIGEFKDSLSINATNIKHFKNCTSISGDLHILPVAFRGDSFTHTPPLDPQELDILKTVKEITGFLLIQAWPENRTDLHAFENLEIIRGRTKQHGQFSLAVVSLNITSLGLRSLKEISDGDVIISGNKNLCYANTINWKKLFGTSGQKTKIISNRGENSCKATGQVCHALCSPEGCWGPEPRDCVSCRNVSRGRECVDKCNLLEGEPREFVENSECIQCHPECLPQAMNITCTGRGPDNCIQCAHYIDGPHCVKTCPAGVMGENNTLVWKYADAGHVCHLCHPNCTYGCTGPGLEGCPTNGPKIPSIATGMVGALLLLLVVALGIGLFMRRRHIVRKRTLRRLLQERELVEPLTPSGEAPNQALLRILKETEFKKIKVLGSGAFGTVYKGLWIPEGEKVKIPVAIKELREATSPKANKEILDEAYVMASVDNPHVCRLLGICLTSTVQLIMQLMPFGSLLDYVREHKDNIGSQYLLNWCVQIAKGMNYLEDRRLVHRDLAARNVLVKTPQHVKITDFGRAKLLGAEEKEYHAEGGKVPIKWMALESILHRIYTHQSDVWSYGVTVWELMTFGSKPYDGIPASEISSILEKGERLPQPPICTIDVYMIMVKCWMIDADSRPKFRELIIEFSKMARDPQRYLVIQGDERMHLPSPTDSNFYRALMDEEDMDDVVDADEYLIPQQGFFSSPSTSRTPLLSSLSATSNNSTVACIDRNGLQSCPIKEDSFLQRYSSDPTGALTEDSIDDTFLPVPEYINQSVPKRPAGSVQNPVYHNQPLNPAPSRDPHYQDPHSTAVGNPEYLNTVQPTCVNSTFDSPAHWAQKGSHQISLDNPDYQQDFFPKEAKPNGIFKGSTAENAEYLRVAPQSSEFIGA
T2 sequence (P00533 25-1210 T790M/C797S/L858R): as above
Sequence of CtermHisTag-mEGFR Wild type (P00533 25-1210): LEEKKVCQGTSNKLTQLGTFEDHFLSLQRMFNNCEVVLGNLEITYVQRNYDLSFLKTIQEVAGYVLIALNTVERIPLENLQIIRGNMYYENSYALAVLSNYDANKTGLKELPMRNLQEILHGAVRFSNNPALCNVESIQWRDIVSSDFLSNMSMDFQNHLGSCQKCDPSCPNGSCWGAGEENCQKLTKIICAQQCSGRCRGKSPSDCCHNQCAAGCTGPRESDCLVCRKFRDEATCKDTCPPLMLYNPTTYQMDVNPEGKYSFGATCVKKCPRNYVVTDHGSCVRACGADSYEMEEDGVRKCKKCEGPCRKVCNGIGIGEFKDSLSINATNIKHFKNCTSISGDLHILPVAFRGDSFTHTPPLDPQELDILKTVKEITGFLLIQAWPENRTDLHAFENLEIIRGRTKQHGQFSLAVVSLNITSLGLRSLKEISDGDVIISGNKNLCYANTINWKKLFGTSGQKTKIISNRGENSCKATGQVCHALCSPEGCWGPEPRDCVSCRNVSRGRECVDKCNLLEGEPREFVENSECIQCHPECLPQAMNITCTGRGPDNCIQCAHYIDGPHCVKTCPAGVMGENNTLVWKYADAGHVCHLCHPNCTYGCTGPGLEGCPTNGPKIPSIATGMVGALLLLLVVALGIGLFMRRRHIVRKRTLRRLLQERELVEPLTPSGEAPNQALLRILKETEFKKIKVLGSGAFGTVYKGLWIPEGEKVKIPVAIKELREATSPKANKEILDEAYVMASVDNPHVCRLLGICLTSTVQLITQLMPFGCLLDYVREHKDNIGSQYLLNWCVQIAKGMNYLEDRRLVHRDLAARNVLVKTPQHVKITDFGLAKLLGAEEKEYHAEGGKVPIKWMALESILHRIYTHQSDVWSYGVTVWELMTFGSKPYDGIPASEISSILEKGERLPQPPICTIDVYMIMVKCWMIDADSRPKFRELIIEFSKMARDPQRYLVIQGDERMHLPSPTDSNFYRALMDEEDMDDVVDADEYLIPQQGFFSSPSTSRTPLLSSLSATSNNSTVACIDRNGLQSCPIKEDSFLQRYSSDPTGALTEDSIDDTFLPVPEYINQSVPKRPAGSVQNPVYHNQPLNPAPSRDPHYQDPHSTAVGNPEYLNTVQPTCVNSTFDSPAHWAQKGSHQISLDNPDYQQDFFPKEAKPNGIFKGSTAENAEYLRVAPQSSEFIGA
T3 sequence (P00533 25-1210): as above

Turning to `C#Cc1cc(NC(=O)NC2CCCC2)nc2nc(Nc3ccccc3N3CCC(CS(C)(=O)=O)C3)ncc12` (stereo not shown) [Example 89], the IC50 is 1000 to 50000 nM in assay [1]; over 10000 nM in assay [2]; over 3000 nM in assay [3]; over 3000 nM in assay [4]; over 3000 nM in assay [5].
Consider `C#Cc1cc(NC(=O)NC2CCCC2)nc2nc(Nc3ccc(OC4CN(C)C4)cc3)ncc12` [Example 80], for which the 50% inhibitory concentration (IC50) in assay [1] is under 20 nM; in assay [2] it was under 1000 nM; in assay [3], over 3000 nM; in assay [4], under 500 nM; in assay [5] it was 1000 to 3000 nM.
On to `C#Cc1cc(NC(=O)NC2CCOC2)nc2nc(Nc3ccc(N4CCN(C)CC4)cc3)ncc12` (stereo not shown) [Example 42, 1-(5-ethynyl-2-{[4-(4-methylpiperazin-1-yl)phenyl]amino}pyrido[2,3-d]pyrimidin-7-yl)-3-(oxolan-3-yl)urea], for which the IC50 in assay [1] was under 20 nM; in assay [2], under 1000 nM; in assay [3] it was under 500 nM; in assay [4], under 500 nM; in assay [5], over 3000 nM.
`C#Cc1cc(OC)nc2nc(Nc3ccc(N(C)CCN(C)C)cc3)ncc12` [Example 2, N^1-(2-(dimethylamino)ethyl)-N^4-(5-ethynyl-7-methoxypyrido[2,3-d]pyrimidin-2-yl)-N^1-methylbenzene-1,4-diamine]: the IC50 is 100 to 1000 nM in assay [1]; over 10000 nM in assay [2]; 1000 to 3000 nM in assay [3]; over 3000 nM in assay [4]; over 3000 nM in assay [5].
Turning to `C#Cc1cc(N2C(=O)NCC23CCCC3)nc2nc(Nc3ccc(S(=O)(=O)N(C)CCN(C)C)cc3)ncc12` [Example 98, N-[2-(dimethylamino)ethyl]-4-[(5-ethynyl-7-{2-oxo-1,3-diazaspiro[4.4]nonan-1-yl}pyrido[2,3-d]pyrimidin-2-yl)amino]-N-methylbenzenesulfonamide], the IC50 was 20 to 100 nM in assay [1]; under 1000 nM in assay [2]; over 3000 nM in assay [3]; over 3000 nM in assay [4]; 1000 to 3000 nM in assay [5].
For `C#Cc1cc(NC(=O)NCC2CCCO2)nc2nc(Nc3ccc(N4CCN(C)CC4)cc3)ncc12` (stereo not shown) [Example 50, 1-(5-ethynyl-2-{[4-(4-methylpiperazin-1-yl)phenyl]amino}pyrido[2,3-d]pyrimidin-7-yl)-3-(oxolan-2-ylmethyl)urea], the IC50 in assay [1] is 20 to 100 nM; in assay [2] it was under 1000 nM; in assay [3], under 500 nM; in assay [4] it was 500 to 1000 nM; in assay [5], over 3000 nM.
`C#Cc1cc(Nc2nccn2C2CCCC2)nc2nc(Nc3ccc(N4CCN(C)CC4)cc3)ncc12` [Example 27, N^7-(1-cyclopentylmidazol-2-yl)-5-ethynyl-N^2-[4-(4-methylpiperazin-1-yl)phenyl]pyrido[2,3-d]pyrimidine-2,7-diamine]: the IC50 in assay [1] was 20 to 100 nM; in assay [2] it was under 1000 nM; in assay [3] it was 1000 to 3000 nM; in assay [4], over 3000 nM; in assay [5] it was over 3000 nM.
For the compound `C#Cc1cc(NC(=O)NC2(C)CCOC2)nc2nc(Nc3ccc(N4CCN(C)CC4)cc3)ncc12` (stereo not shown) [Example 62], the IC50 was under 20 nM in assay [1]; under 1000 nM in assay [2]; under 500 nM in assay [3]; under 500 nM in assay [4]; 500 to 1000 nM in assay [5].
Regarding `C#Cc1cc(OC2CCCCC2)nc2nc(Nc3ccc(N4CCN(C)CC4)cc3)ncc12` [Example 14, 7-(cyclohexyloxy)-5-ethynyl-N-(4-(4-methylpiperazin-1-yl)phenyl)pyrido[2,3-d]pyrimidin-2-amine], the IC50 was 100 to 1000 nM in assay [1]; over 10000 nM in assay [2]; over 3000 nM in assay [3]; over 3000 nM in assay [4]; over 3000 nM in assay [5].
As to `C#Cc1cc(-n2cc(C)cn2)nc2nc(Nc3ccc(N(C)CCN(C)C)cc3)ncc12` [Example 34, N^1-[2-(dimethylamino)ethyl]-N^4-[5-ethynyl-7-(4-methylpyrazol-1-yl)pyrido[2,3-d]pyrimidin-2-yl]-N^1-methylbenzene-1,4-diamine], the IC50 was under 20 nM in assay [1]; 1000 to 10000 nM in assay [2]; over 3000 nM in assay [3]; 1000 to 3000 nM in assay [4]; over 3000 nM in assay [5].
Take `C#Cc1cc(N(C)C)nc2nc(Nc3ccc(N(C)CCN(C)C)cc3)ncc12` [Example 24, N^2-(4-{[2-(dimethylamino)ethyl](methyl)amino}phenyl)-5-ethynyl-N^7,N^7-dimethylpyrido[2,3-d]pyrimidine-2,7-diamine]: the IC50 in assay [1] is 1000 to 50000 nM; in assay [2], over 10000 nM; in assay [3], over 3000 nM; in assay [4], over 3000 nM; in assay [5], over 3000 nM.
With `C#Cc1cc(-n2ccnc2)nc2nc(Nc3ccc(N4CCN(C)CC4)cc3)ncc12` [Example 35, 5-ethynyl-7-(imidazol-1-yl)-N-[4-(4-methylpiperazin-1-yl)phenyl]pyrido[2,3-d]pyrimidin-2-amine], the IC50 in assay [1] was under 20 nM; in assay [2], under 1000 nM; in assay [3], 1000 to 3000 nM; in assay [4], over 3000 nM; in assay [5], over 3000 nM.
For `C#Cc1cc(NC(=O)NC2CCCC2)nc2nc(Nc3ccc(OCCN(C)C)cc3)ncc12` [Example 79, 3-Cyclopentyl-1-[2-((4-[2-(dimethylamino)ethoxyl]phenylamino)-5-ethynyl)pyrido[2,3-d]pyrimidin-7-yl]urea], the IC50 was under 20 nM in assay [1]; under 1000 nM in assay [2]; under 500 nM in assay [3]; under 500 nM in assay [4]; over 3000 nM in assay [5].
In the case of `C#Cc1cc(NC(=O)NC2CCCC2)nc2nc(Nc3cccc(N(C)[C@H]4C[C@@H](CS(C)(=O)=O)C4)c3)ncc12` [Example 119], the IC50 was 20 to 100 nM in assay [1], under 1000 nM in assay [2], under 500 nM in assay [3] and under 500 nM in assay [4].
Consider `C#Cc1ccnc2nc(Nc3ccccc3OC)ncc12` [Example 1, 5-ethynyl-N-(2-methoxyphenyl)pyrido[2,3-d]pyrimidin-2-amine], for which the IC50 in assay [1] was 100 to 1000 nM; in assay [2], over 10000 nM.
Take `C#Cc1cc(NC(=O)NC2CCCC2)nc2nc(Nc3cccc(N(C)[C@H]4CC[C@H](CS(C)(=O)=O)CC4)c3)ncc12` [Example 121]: the IC50 was 20 to 100 nM in assay [1], under 1000 nM in assay [2], 500 to 1000 nM in assay [3] and under 500 nM in assay [4].
As for `C#Cc1cc(NC(=O)NC2CCCC2)nc2nc(Nc3cccc(N(C)[C@H]4CC[C@@H](CS(C)(=O)=O)CC4)c3)ncc12` [Example 120], the IC50 in assay [1] was 20 to 100 nM; in assay [2], under 1000 nM; in assay [3], under 500 nM; in assay [4] it was under 500 nM.

Source of the values: US20260176265A1 (Cancer Research Technology Limited, priority 2022, published 2026).
